Assay results published in patent US10738028B2, “Spiro three-membered ring, spiro five-membered ring peptide deformylase inhibitor and use thereof in antibacteria and anti-tumor” (priority 2016, dated 2020).
pIC50: −log10 of the molar value. ≈ marks a conversion by molar mass, not a printed value.

Key:
Format in all cases: cell-based
[1] = test system: Enterococcus faecalis (EFA); test: MIC, two-fold agar dilution (CLSI), clinical isolates
How it was run: (§1)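 Susceptibility was tested using CLSI two-fold agar dilution against the strains examined.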

[2] = test system: Enterococcus faecium (EFM); test: as above
How it was run: as §1

[3] = test system: Escherichia coli (including ESBLs, non-ESBLs); test: as above
How it was run: as §1

[4] = test system: Moraxella catarrhalis (BCA); test: as above
How it was run: as §1

[5] = test system: Streptococcus pneoumoniae (SPN); test: as above; settings: strain SPN 16-4
How it was run: as §1

[6] = test system: methicillin-resistant Staphylococcus aureus (MRSA); test: as above
How it was run: as §1

[7] = test system: methicillin-resistant Staphylococcus epidermidis (MRSE); test: as above
How it was run: as §1

[8] = test system: methicillin-sensitive Staphylococcus aureus (MSSA); test: as above
How it was run: as §1

[9] = test system: methicillin-sensitive Staphylococcus epidermidis (MSSE); test: as above
How it was run: as §1

[10] = test system: HCT-116 colorectal cancer cell line; test: CCK-8 proliferation inhibition; settings: 72 hours, CCK-8
How it was run: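 2000 cells/well, McCoy's 5A + 10% newborn bovine serum; overnight attach, 37° C./5% CO2. Cpd from DMSO stock diluted in medium, 72 h. Readout: CCK-8 (1:10). Ctrl 1‰ DMSO.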

[11] = test system: A549 lung cancer cell line; test: CCK-8 proliferation inhibition; settings: Homo sapiens
From the text: (§2) 2. The present invention adopts the CCK-8 method to determine the proliferation inhibition effect of the spiro three-membered ring, spiro five-membered ring peptide deformylase inhibitor as described in Examples 1-80 against colorectal cancer cells, lung cancer cells, gastric cancer cells, liver cancer cells, and the like. […] The compound having the best activity synthesized in Example 64 was further tested for its inhibitory activity against other tumor cells including T cell leukemia, acute myeloid leukemia, cervical cancer, breast cancer, prostate cancer and osteosarcoma, and the like (see Table 7).
(§3) (1) HCT-116 colorectal cancer cell line, A549 lung cancer cell line, MGC-803 gastric cancer cell line, BEL-7402 liver cancer cell line, Jurkat T cell leukemia cell line, HL60 acute myeloid leukemia cell line, Hela cervical cancer cell line, MCF-7 breast cancer cell line, PC3 prostate cancer cell line and SAOS-2 osteosarcoma cell line were made into single cell suspension, 180 μL of which was inoculated into 96-well culture plate, which was cultured overnight in CO2 incubator (37° C., 5% CO2, 95% air).
(§4) (2) Each of the spiro three-membered ring, spiro five membered ring peptide deformylase inhibitors was dissolved in DMSO, and was further formulated into drug solution with required different final concentration using corresponding cell culture medium. The drug solutions were added to the above cells respectively (20 μL/well), with the control group added with 1‰ DMSO, and cultured in a CO2 incubator for 72 hours.
(§5) (3) After incubation for 72 hours, the culture solution was decanted, and 100 μL of 1:10 diluted CCK-8 solution was added.
(§6) Wherein, in step (1), the concentration of the single cell suspension was 2000 cells/well.
(§7) Wherein, in step (2), HCT-116 cells were cultured in McCoy's 5A medium (containing 10% newborn bovine serum, 1% double antibody); A549 and PC3 cells were cultured in F12 medium (containing 10% newborn bovine serum, 1% double antibody); MGC-803, BEL-7402, SAOS-2, Jurkat and HL60 cells were cultured in 1640 medium (containing 10% newborn bovine serum, 1% double antibody); and MCF-7 and Hela cells were cultured in DMEM high glucose medium (containing 10% newborn bovine serum, 1% double antibody).

[12] = test system: BEL-7402 liver cancer cell line; test: CCK-8 proliferation inhibition
From the text: as §2, §3, §4, §5, §6, §7

[13] = test system: MGC-803 gastric cancer cell line; test: CCK-8 proliferation inhibition
From the text: as §2, §3, §4, §5, §6, §7

[14] = concentration of 30 μM, 72 hours, 30 µM

Cc1cnc(NC(=O)[C@@H]2CC3(CC3)CN2C(=O)[C@H](CC2CCCC2)CN(O)C=O)s1 [Example 29, (S)-5-((R)-3-cyclopentylmethyl-2-((N-hydroxyformamido)methyl)propionyl)-N-(5-methylthiazol-2-yl)-5-spiro[2.4]heptane-6-carboxamide]
MIC (anti-bacterial activity) ([1]; strain EFA 15-1): 4 µg/mL (≈ 9.2 µM) | MIC (anti-bacterial activity) ([1]; strain EFA 15-2): 4 µg/mL (≈ 9.2 µM) | MIC (anti-bacterial activity) ([1]; strain EFA 15-3): 1 µg/mL (≈ 2.3 µM) | MIC (anti-bacterial activity) ([1]; strain EFA 15-4): 4 µg/mL (≈ 9.2 µM) | MIC (anti-bacterial activity) ([1]; strain EFA 15-5): 4 µg/mL (≈ 9.2 µM) | MIC (anti-bacterial activity) ([1]; strain EFA 15-6): 4 µg/mL (≈ 9.2 µM) | MIC (anti-bacterial activity) ([1]; strain EFA 15-9): 2 µg/mL (≈ 4.6 µM) | MIC (anti-bacterial activity) ([2]; strain EFM 15-1): 1 µg/mL (≈ 2.3 µM) | MIC (anti-bacterial activity) ([2]; strain EFM 15-2): 1 µg/mL (≈ 2.3 µM) | MIC (anti-bacterial activity) ([2]; strain EFM 15-3): 0.5 µg/mL (≈ 1.15 µM) | MIC (anti-bacterial activity) ([2]; strain EFM 15-4): 1 µg/mL (≈ 2.3 µM) | MIC (anti-bacterial activity) ([2]; strain EFM 15-5): 1 µg/mL (≈ 2.3 µM) | MIC (anti-bacterial activity) ([2]; strain EFM 15-6): 1 µg/mL (≈ 2.3 µM) | MIC (anti-bacterial activity) ([3]; strain ECO+ 15-1): 16 µg/mL (≈ 36.8 µM) | MIC (anti-bacterial activity) ([3]; strain ECO+ 15-2): 32 µg/mL (≈ 73.6 µM) | MIC (anti-bacterial activity) ([3]; strain ECO+ 15-3): 16 µg/mL (≈ 36.8 µM) | MIC (anti-bacterial activity) ([3]; strain ECO+ 15-4): 16 µg/mL (≈ 36.8 µM) | MIC (anti-bacterial activity) ([3]; strain ECO− 15-1): 16 µg/mL (≈ 36.8 µM) | MIC (anti-bacterial activity) ([3]; strain ECO− 15-2): 16 µg/mL (≈ 36.8 µM) | MIC (anti-bacterial activity) ([3]; strain ECO− 15-3): 32 µg/mL (≈ 73.6 µM) | MIC (anti-bacterial activity) ([3]; strain ECO− 15-4): 16 µg/mL (≈ 36.8 µM) | Anti-bacterial activity (MIC), strain BCA 14-10 ([4]; clinical isolate BCA 14-10): 0.25 µg/mL | MIC (anti-bacterial activity) ([4]; strain BCA 14-1): 0.5 µg/mL (≈ 1.15 µM) | MIC (anti-bacterial activity) ([4]; strain BCA 14-4): 0.5 µg/mL (≈ 1.15 µM) | MIC (anti-bacterial activity) ([4]; strain BCA 14-5): 0.125 µg/mL (≈ 0.288 µM) | MIC (anti-bacterial activity) ([4]; strain BCA 14-6): 0.25 µg/mL (≈ 0.575 µM) | MIC (anti-bacterial activity) ([4]; strain BCA 14-7): 0.125 µg/mL (≈ 0.288 µM) | MIC (anti-bacterial activity) ([4]; strain BCA 14-8): 0.25 µg/mL (≈ 0.575 µM) | MIC (anti-bacterial activity) [5]: 4 µg/mL (≈ 9.2 µM) | MIC (anti-bacterial activity) ([6]; strain MRSA 15-1): 0.125 µg/mL (≈ 0.288 µM) | MIC (anti-bacterial activity) ([6]; strain MRSA 15-2): 0.125 µg/mL (≈ 0.288 µM) | MIC (anti-bacterial activity) ([6]; strain MRSA 15-3): 0.06 µg/mL (≈ 0.138 µM) | MIC (anti-bacterial activity) ([6]; strain MRSA 15-4): 0.125 µg/mL (≈ 0.288 µM) | MIC (anti-bacterial activity) ([7]; strain MRSE 15-1): 0.06 µg/mL (≈ 0.138 µM) | MIC (anti-bacterial activity) ([7]; strain MRSE 15-2): 0.125 µg/mL (≈ 0.288 µM) | MIC (anti-bacterial activity) ([7]; strain MRSE 15-3): 0.125 µg/mL (≈ 0.288 µM) | MIC (anti-bacterial activity) ([7]; strain MRSE 15-7): 0.125 µg/mL (≈ 0.288 µM) | MIC (anti-bacterial activity) ([8]; strain MSSA 15-3): 0.125 µg/mL (≈ 0.288 µM) | MIC (anti-bacterial activity) ([8]; strain MSSA 15-4): 0.125 µg/mL (≈ 0.288 µM) | MIC (anti-bacterial activity) ([8]; strain MSSA 15-5): 0.125 µg/mL (≈ 0.288 µM) | MIC (anti-bacterial activity) ([8]; strain MSSA 15-6): 0.125 µg/mL (≈ 0.288 µM) | MIC (anti-bacterial activity) ([9]; strain MSSE 15-3): 0.125 µg/mL (≈ 0.288 µM) | MIC (anti-bacterial activity) ([9]; strain MSSE 15-4): 0.125 µg/mL (≈ 0.288 µM) | MIC (anti-bacterial activity) ([9]; strain MSSE 15-5): 0.125 µg/mL (≈ 0.288 µM) | MIC (anti-bacterial activity) ([9]; strain MSSE 15-6): 0.06 µg/mL (≈ 0.138 µM) | pIC50 ([10]; Homo sapiens, HCT-116): 5.05 | HCT116 inhibition rate/% ([10]; concentration of 30 μM, 30 µM): 94% | inhibition at 30 µM ([11]; A549, 72 h, concentration of 30 μM): 36% | pIC50 ([11]; A549, 72 hours): 4.87 | pIC50 ([12]; Homo sapiens, Bel-7402, 72 hours): 5.12 | Inhibition of proliferation, Liver cancer BEL-7402 [12, 14]: 79% | pIC50 ([13]; Homo sapiens, MGC-803, 72 hours): 5.11 | Inhibition of proliferation, Gastric cancer MGC-803 [13, 14]: 78%
